The structures appear in SMILES notation. Converted amounts (≈) assume the structure as drawn.

Results on four molecules are retold here after patent US5420276A, “Analogs of oxetanyl purines and pyrimidines” (Abbott Laboratories, priority 1993, dated 1995).

The subject of data set [1] is Varicella-Zoster Virus (VZV) clinical isolate DM625. In words: VZV plaque reduction assay. It counts as cell-based. Particulars: Human alphaherpesvirus 3, 144 h, VZV in HFF; for EC50: minimum concentration required to inhibit plaque formation by 50%, read-out: MIC50. How it is done: The compounds of the invention were evaluated for selective activity against varicella zoster virus (VCV) utilizing a plaque reduction assay procedure. The challenge virus was a clinical isolate designated DM625, obtained from Dr. Richard Whitley of the University of Alabama Hospitals, Birmingham, Ala. The virus had been passaged and titrated in cultures of human foreskin fibroblasts (HFF).
(§1) For the plaque reduction assay, sixth to twelfth passage human foreskin fibroblasts were seeded in wells of 12-well tissue culture plates and incubated at 37° C. in a humidified atmosphere containing 2% CO2 in air. Subconfluent HFF were rinsed with MEM and exposed to 0.5 ml/well of a suspension of VZV diluted in MEM+2% FBS for 2 hours at 37° C. Following the virus adsorption period, the inocula were removed and the infected cell layers were rinsed with MEM. Triplicate VZV-infected cell culture wells were treated with 1.0 ml of each concentration of test compound (in MEM+2% FBS). Six untreated virus-infected cell cultures and triplicate untreated uninfected cell cultures were fed with 1.0 ml of MEM+2% FBS to serve as controls. Wells containing uninfected HFF were treated with each concentration of test compound to monitor the test compound cytotoxicity. The 12-well plates were incubated at 37° C. in the CO2 incubator. At 48 hours post-virus infection (p.i.), fluids in all plate wells were replaced with fresh test compound and/or culture medium.
Six days p.i., the VZV plaques were counted (unstained, low magnification).The effect of each concentration of test compound on plaque formation was determined by comparing the mean number of plaques in the replicate test compound-treated cultures with the mean plaque counts of the untreated virus control cultures.
The MIC50 value is the minimum concentration of test Compound required to inhibit plaque formation by 50%.
Background: Plaques are areas of infected cells; plaque reduction assays count them against a control.

A short description of data set [2]: MTT test compound cytotoxicity in human foreskin fibroblasts. The data set is classed as cell-based. The following applies: hff cells, read-out: MTT assay (Percent of control). How it is done: as §1
The test compound cytotoxicity control cultures were examined microscopically for gross morphologic changes, then treated with MTT and 30% SDS. The blue color of the MTT formazan was measured spectrophotometrically at 570 nm. Test compound cytotoxicity was determined by comparing the absorbance (O.D.) of each test compound control with the mean O.D. of the cell control cultures and expressed as percent of control.
Background: Formazan colour is commonly taken as a measure of viable cells.

The test system of data set [3] is HSV-1 (E-377). In words: CPE inhibition assay (MTT), HSV-1 (E-377) in Vero cells. The data set is classed as cell-based, herpes simplex virus type 1. Particulars: Human alphaherpesvirus 1, inhibited CPE by 50%. How it is done: (§2) Vero cells were pregrown as monolayers in wells of COSTAR 96-well tissue culture plates using suitable cell culture media. Stock viruses were pretitered according to the method of Reed and Muench (Amer. J. Hyg. 27 493 (1938)) and diluted in cell culture medium to yield 32 CCID50 (cell culture infectious dose, 50%) units per 0.1 mL. Antiviral assays were designed to test six concentrations of each compound, from cytotoxic to noncytotoxic levels, in triplicate against each of the challenge viruses in microtiter plate wells containing cell monolayers. To each of the replicate cell cultures were added 0.1 mL of the test-compound solution and 0.1 mL of virus suspension. Two compounds were evaluated per plate. The following controls were included:
(§3) (1) Cell controls containing cells+medium;
(§4) (2) Untreated, virus-infected cell controls;
(§5) (3) Test-compound cytotoxicity controls containing uninfected, test-compound treated cells;
(§6) (4) Test-compound color controls-test-compound+medium (no cells); and
(§7) (5) Reagent (experiment medium) controls-medium only (no cells).
(§8) The covered plates were incubated at 37° C. in a humidified atmosphere containing 2% CO2. When cytopathogenic effect (CPE) in untreated virus control wells reached 100%, 20 μL of 3-(4,5-dimethyl-thiazol-2-yl)-2,5-diphenyl tetrazolium bromide (MTT) (dissolved in PBS at 5 mg/mL) was pipetted into each of the plate wells. The plates were incubated at 37° C. for six hours; then 40 μL of 30% SDS (in 0.02N HCl) was added to each well. After overnight incubation at 37° C., the blue color or the MTT formazan was measured spectrophotometrically at 570 nm. The optical density (OD) value of each culture is a function of the amount of formazan produced which is proportional to the number of viable cells. A computer program was utilized to calculate the percent (CPE) reciprocal of % CPE reduction) of the virus-infected wells and % cell viability of the uninfected test-compound control wells.
The IC50 value is the minimum test-compound concentration (μg/mL) that inhibited CPE by 50% calculated by using a regression analysis program for semilog curve fitting. The TC25 value is the minimum test-compound concentration (μg/mL) that reduced cell viability by 25%.

In data set [4] the test system is HSV-2 (MS). Description: CPE inhibition assay (MTT), HSV-2 (MS) in Vero cells. Particulars: Human alphaherpesvirus 2, inhibited CPE by 50%. It counts as cell-based, herpes simplex virus type 2. The protocol: as §2, §3, §4, §5, §6, §7
as §8, with “control wells. […]” for “control wells.”

In data set [5] the test system is Vero cells. In words: MTT cell viability of uninfected test-compound control Vero cells. The data set is classed as cell-based, African green monkey. The following applies: reduced cell viability by 25%, HSV-1 (E-377) line. The protocol: as §2, §5
The covered plates were incubated at 37° C. in a humidified atmosphere containing 2% CO2. When cytopathogenic effect (CPE) in untreated virus control wells reached 100%, 20 μL of 3-(4,5-dimethyl-thiazol-2-yl)-2,5-diphenyl tetrazolium bromide (MTT) (dissolved in PBS at 5 mg/mL) was pipetted into each of the plate wells. The plates were incubated at 37° C. for six hours; then 40 μL of 30% SDS (in 0.02N HCl) was added to each well. After overnight incubation at 37° C., the blue color or the MTT formazan was measured spectrophotometrically at 570 nm. […]

Data set [6] deals with Herpes Simplex Virus Type 1. In words: Neutral red dye uptake assay for antiviral activity, HSV-1 in Vero cells. Particulars: Human alphaherpesvirus 1, HSV-1, Vero, concentration at which 50% CPE would be observed, read-out: MIC50. The data set is classed as cell-based. The protocol:
(§9) Vero cell monolayers were harvested by trypsinization. The number of viable cells per ml. was determined by staining an aliquot with trypan blue and counting in a hemocytometer. Cell densities were adjusted in growth medium to contain 4×10^5 cells/mi. 96-well sterile tissue culture plates were seeded with 100 μl/well of the adjusted cell suspensions, i.e., 4×10^4 cells/well. Seeded plates were incubated overnight at 37° C. with CO2.
(§10) After overnight incubation, monolayers were approximately confluent. The growth medium was removed and the monolayers in each cell were infected with 100 μl of virus diluted in maintenance medium to produce approximately 90% cytopathogenic effect (CPE) after 2 to 3 days incubation. The virus was allowed to adsorb for 1 hour at 37° C. with 4 to 6% CO2. Controls for cell growth were overlayed with virus-free maintenance medium. The maintenance medium containing residual virus was removed.
(§11) The test compounds were dissolved and/or diluted in maintenance medium to the concentration desired for testing and were added to the wells of the plate. Aliquots (100 μl ) of each concentration were added to wells in replicate (duplicate or triplicate). Controls for virus activity were overlayed with drug-free maintenance medium. Replicate wells containing only maintenance medium served as controls for background absorbance levels.
After incubation, the medium was removed from all the wells. 100 μl of neutral red solution was added to each well and the plate was incubated at 37° C. without CO2 for 2 hours. After the 2 hour incubation, the excess neutral red solution was removed. […]
The neutral red stain taken up by the viable cells was extracted by adding 100 μl/well of acidified methanol, pH 1.0. […] The amount of neutral red stain extracted into the methanol was quantified by determining the absorbance at a wavelength of 540 nm.
The percent CPE in virus controls was determined by the following formula: [formula]
The percent CPE in cells infected with virus and treated with the test compound was determined by the following formula: [formula] […]

Data set [7] is described as follows: in vitro. Particulars: monkey, vero cells. It counts as cell-based, African green monkey. How it is done: as §9, §10, §11
After incubation, the medium was removed from all the wells. 100 μl of neutral red solution was added to each well and the plate was incubated at 37° C. without CO2 for 2 hours. After the 2 hour incubation, the excess neutral red solution was removed. The plates were washed with 100 μl/well of PBS, pH 7.2 and then the PBS was removed.
The neutral red stain taken up by the viable cells was extracted by adding 100 μl/well of acidified methanol, pH 1.0. (The acidified methanol fixed the cells to the well). The plate was allowed to stand at room temperature for at least 15 minutes to allow for maximum extraction. The amount of neutral red stain extracted into the methanol was quantified by determining the absorbance at a wavelength of 540 nm. […]

For `O=c1[nH]c(=O)n([C@@H]2O[C@H](CO)[C@H]2CO)cc1I` [Example 42, 1-([2'R, 3'R, 4'S]-3',4'-Bis(hydroxymethyl)-2'-oxetanyl)-5-iodouracil], in data set [1], testing at 0.032 µM gave an inhibition of 7%; testing at 0.1 µM gave an inhibition of 2%; at 0.32 µM the inhibition was 54%; the inhibition – broadly, how much of the control response was suppressed – at 1 µM stood at 76%. Further, in data set [1], at 3.2 µM the inhibition was 98%, the inhibition at 10 µM came out at 99%, the inhibition at 32 µM amounted to 100% and at 100 µM the inhibition was 100%. Also, in data set [1], testing at 320 µM gave an inhibition of 99.6%, the inhibition at 1000 µM was found to be 100% and the EC50 was 0.1 µg/mL (≈ 0.282 µM). In addition, in data set [2], the viability at 1 µM worked out at 93%, the viability at 3.2 µM came to 94%, the viability at 10 µM came out at 80% and the viability at 32 µM was 88%. Besides, in data set [2], the viability at 100 µM is 82%, the viability at 320 µM is 79% and the viability at 1000 µM was 68%. In data set [3], it took 0.05 µg/mL (≈ 0.141 µM) to reach half-maximal inhibition (IC50). For the same molecule, the IC50 (commonly the concentration that inhibits the measured activity by half) in data set [4] was 35.3 µg/mL (≈ 99.7 µM).
Regarding `O=c1[nH]c(=O)n([C@@H]2O[C@H](CO)[C@H]2CO)cc1Br` [Example 43, 1-([2'R, 3'R, 4'S]-3',4'-Bis(hydroxymethyl)-2'-oxetanyl)-5-bromouracil], in data set [1], testing at 0.032 µM gave an inhibition of 1%, the inhibition at 0.1 µM is 12%, 0.32 µM produced 41% inhibition and 1 µM produced 75% inhibition. In data set [1], this molecule displayed an inhibition at 3.2 µM of 98%, an inhibition at 10 µM of 99%, an inhibition at 32 µM of 99% and an inhibition at 100 µM of 100%. In addition, in data set [1], the inhibition at 320 µM came out at 100%, 1000 µM produced 100% inhibition and the EC50 was determined as 0.17 µg/mL (≈ 0.554 µM). Also, the viability at 0.032 µM in data set [2] (0.032 μM) turned out to be 100%. Moreover, in data set [2], the viability at 0.1 µM stood at 100%, the viability at 0.32 µM turned out to be 96%, the viability at 1 µM is 100% and the viability at 3.2 µM was 93%. Further, in data set [2], the viability at 10 µM stood at 99%, the viability at 32 µM amounted to 93%, the viability at 100 µM was found to be 100% and the viability at 320 µM came to 88%. The viability at 1000 µM in data set [2] was determined as 82%. In data set [3], this molecule came in with a half-maximal inhibitory concentration (IC50) of 0.7 µg/mL (≈ 2.28 µM). The concentration for half-maximal inhibition (IC50) in data set [4] turned out to be 141 µg/mL (≈ 459 µM).
Regarding `O=c1[nH]c(=O)n([C@@H]2O[C@H](CO)[C@H]2CO)cc1C=CI` [Example 49, 1([2'R, 3'R, 4'S]-3',4'-Bis(hydroxymethyl)-2'-oxetanyl)-5-(2-iodo-1-vinyl)uracil], in data set [1] (0.0032 μM), at 0.0032 µM the inhibition was 18%. The molecule also came in with an inhibition at 0.01 µM in data set [1] (0.01 μM) of 49%. Moreover, in data set [1], the inhibition at 0.032 µM came to 97%, the inhibition at 0.1 µM was found to be 98%, the inhibition at 0.32 µM is 98% and the inhibition at 1 µM is 99%. Also, in data set [1], the EC50 was determined as 0.01 µg/mL (≈ 0.0263 µM). In data set [2], the viability at 0.1 µM amounted to 100%, the viability at 0.32 µM turned out to be 100% and the viability at 1 µM came out at 100%. In data set [3], the IC50 worked out at 0.67 µg/mL (≈ 1.76 µM). The molecule also came in with a TC25 in data set [5] of over 380 µg/mL.
With `C=Cc1cn([C@@H]2O[C@H](CO)[C@H]2CO)c(=O)[nH]c1=O` [Example 61, 1-([2'R, 3'R, 4'S]-3',4'-Bis(hydroxymethyl)-2'-oxetanyl)-5-vinyluracil], in data set [6], the EC50 was 0.02 µg/mL (≈ 0.0787 µM). In addition, in data set [7], the half-maximal cytotoxic concentration (CC50) (as a rule, the concentration that lowers cell viability or growth by half) was over 1000 µg/mL. Further, the IC50 in data set [4] is 6.3 µg/mL (≈ 24.8 µM).
